We go through 18 compounds from patent publication US6391595B1, “Transferase and amylase, process for producing the enzymes, use thereof, and gene coding for the same” (Kirin Beer Kabushiki Kaisha, priority 1994, dated 2002).

Test [1] relates to debranching enzyme derived from the Sulfolobus solfataricus strain KM1. In words: Influence of activators and inhibitors on debranching enzyme activity. The format is biochemical. Particulars: for Residual activity: Concentration 5 mM.
Test [2] relates to transferase derived from the Sulfolobus solfataricus strain KM1. Put plainly: Influence of activators and inhibitors on glucosyltrehalose-producing activity. The format is biochemical. Particulars: for Activating or inhibitory effect: added with the substrate.
For test [3], the target named is T1, amylase derived from the Sulfolobus solfataricus strain KM1 (Saccharolobus solfataricus, UniProt Q55088).
T1 construct: endogenous in cells; host or cells: Sulfolobus solfataricus strain KM1 cells
T1 sequence (Q55088 1-559): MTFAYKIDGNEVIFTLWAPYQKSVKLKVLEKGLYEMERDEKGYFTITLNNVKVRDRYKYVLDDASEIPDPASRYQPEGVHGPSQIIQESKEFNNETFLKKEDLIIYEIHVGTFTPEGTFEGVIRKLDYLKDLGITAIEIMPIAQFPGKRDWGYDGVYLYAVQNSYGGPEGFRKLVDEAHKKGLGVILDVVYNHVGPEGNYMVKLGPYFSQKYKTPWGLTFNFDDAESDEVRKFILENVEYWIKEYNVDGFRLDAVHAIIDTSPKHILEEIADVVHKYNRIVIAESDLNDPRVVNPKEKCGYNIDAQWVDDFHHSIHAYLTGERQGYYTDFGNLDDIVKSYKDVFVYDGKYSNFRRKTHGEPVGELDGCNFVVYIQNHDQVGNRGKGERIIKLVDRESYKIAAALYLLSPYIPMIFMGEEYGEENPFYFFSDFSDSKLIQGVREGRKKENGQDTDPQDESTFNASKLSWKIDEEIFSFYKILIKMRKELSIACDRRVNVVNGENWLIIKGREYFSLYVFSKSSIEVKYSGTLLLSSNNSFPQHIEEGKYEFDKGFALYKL
Put plainly: biochemical. The format is biochemical. Particulars: for Activating or inhibitory effect: added with the substrate.

The target in test [4] is T2, recombinant novel amylase (Saccharolobus solfataricus, UniProt Q55088).
T2 sequence (Q55088 1-559): T1 sequence (Q55088 1-559)
In words: Substrate specificity of the recombinant novel amylase (crude enzyme solution). The note with it: for Liberated oligosaccharide / Production rate of mono- and disaccharides: 35.2 Units/ml crude enzyme solution, 10 mM substrate (amylopectin and soluble starch 3.0%); for Production rate of mono- and disaccharides: 1 Unit = 1 μmol per hour.

Test [5] deals with T3, swine pancreatic α-amylase (Sus scrofa, UniProt P00690).
T3 construct: purchased Sigma Co. A-6255
T3 sequence (P00690 16-511): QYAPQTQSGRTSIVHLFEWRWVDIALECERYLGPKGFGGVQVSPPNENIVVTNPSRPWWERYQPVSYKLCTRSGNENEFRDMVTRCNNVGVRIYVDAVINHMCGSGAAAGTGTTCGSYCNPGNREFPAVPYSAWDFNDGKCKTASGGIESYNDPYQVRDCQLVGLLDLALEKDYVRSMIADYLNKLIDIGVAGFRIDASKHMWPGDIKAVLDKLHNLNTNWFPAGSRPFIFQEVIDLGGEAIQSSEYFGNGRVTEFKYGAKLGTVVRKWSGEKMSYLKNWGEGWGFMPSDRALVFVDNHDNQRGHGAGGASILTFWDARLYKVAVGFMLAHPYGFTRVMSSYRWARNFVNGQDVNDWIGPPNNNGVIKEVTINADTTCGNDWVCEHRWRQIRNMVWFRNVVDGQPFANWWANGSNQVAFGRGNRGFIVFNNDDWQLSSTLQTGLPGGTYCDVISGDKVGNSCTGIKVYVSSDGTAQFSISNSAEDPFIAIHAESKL
In words: Hydrolysis of oligosaccharides by pancreatic α-amylase (comparative). The format is biochemical. Particulars: 1 Unit/ml α-amylase, 10 mM substrate, pH 6.9, 20° C.; for Production rate of di- and trisaccharides: 1 Unit = 1 umol per hour. On the procedure:
Swine pancreatic α-amylase is known to hydrolyze maltooligosaccharide from the reducing end by two or three sugar units [“Denpun.Kanren Toushitsu Kouso Jikken-hou” (“Experimental methods in enzymes for starch and relating saccharides”), p 135, written by Michinori Nakamura and Keiji Kainuma, published by Gakkai-Shuppan-Sentah]. Upon this, a swine pancreatic α-amylase (manufactured by Sigma Co., A-6255) was analyzed the hydrolyzing properties and the hydrolysates as a comparative example for the novel amylase of the present invention. […] The activity of producing disaccharide and trisaccharide was employed as the index of the enzymatic activity, and the analysis was performed by the TSK-gel Amide-80 HPLC analyzing method described in Example II-1.
Incidentally, the enzymatic activity values in Table 17 were expressed with such a unit as 1 Unit equals the activity of liberating 1 umol of each oligosaccharide per hour.

The target in test [6] is T1, amylase derived from the Sulfolobus solfataricus strain KM1. Put plainly: Substrate specificity of the purified amylase (hydrolyzing properties, TSK-gel Amide-80 HPLC). Particulars: for Liberated oligosaccharide / Production rate of mono- and disaccharides: 25.0 Units/ml enzyme, 10 mM substrate (amylopectin and soluble starch 2.8%); for Production rate of mono- and disaccharides: 1 Unit = 1 μmol per hour. The format is biochemical. The method, then:
The hydrolyzing properties were analyzed by allowing 25.0 Units/ml (in terms of the enzymatic activity when maltotriosyltrehalose is used as the substrate) of the present purified enzyme to act on the various 10 mM substrates (except amylopectin and soluble starch were used as 2.8% solutions) listed in Table 16 below, and the hydrolyzed products were also analyzed.
Incidentally, each enzymatic activity in Table 16 is expressed with such a unit as 1 Unit equals the activity of liberating 1 μmol of each of the monosaccharide and disaccharide per hour.

[7] abbreviates: Concentration 5 mM, read-out: Residual activity.

Structures are written as SMILES. Like-named read-outs stand apart in the source and are kept apart here.

For `OCCS` [2-Mercaptoethanol], the figures for the Residual activity in test [1], in test [2] (Concentration 5 mM) and in test [3] (Concentration 5 mM) were 104.1%, 100.3% and 141.7%, respectively.
As for `OCC1OC(OC2OC(CO)C(OC3OC(CO)C(OC4OC(CO)C(O)C(O)C4O)C(O)C3O)C(O)C2O)C(O)C(O)C1O` [Maltosyltrehalose, α-D-maltotriosyl α-D-glucopyranoside], in test [4], the Liberated oligosaccharide result was “G2 + Trehalose”; the “Production rate of mono- and disaccharides” value stood at 4.52 units/ml. Moreover, in test [5], the Liberated oligosaccharide entry is “not decomposed”; the “Production rate of di- and trisaccharides” value was 0 units/ml. For the same compound, in test [6], the Liberated oligosaccharide result is recorded as “G2 + Trehalose”; the “Production rate of mono- and disaccharides” value worked out at 3.93 units/ml.
Regarding `OC[C@H]1O[C@H](O[C@H]2O[C@H](CO)[C@@H](O)[C@H](O)[C@H]2O)[C@H](O)[C@@H](O)[C@@H]1O` [α,α-Trehalose, α,α-trehalose], the Residual activity in test [2] (Concentration 0.5 mM) worked out at 107.8%. Also, in test [4], the “Action of the enzyme on the substrate” value is reported as “did not act”; the Liberated oligosaccharide entry is “not decomposed”; the “Production rate of mono- and disaccharides” value was 0 units/ml. Besides, in test [3] (Concentration 0.5 mM, read-out: Residual activity), the remaining activity at 500 µM was 98.2%. Moreover, in test [6], the “Action of the enzyme on the substrate” value is listed as “did not act”; the Liberated oligosaccharide result is recorded as “not decomposed”; the “Production rate of mono- and disaccharides” value stood at 0 units/ml.
As for `[Ca+2].[Cl-].[Cl-]` [CaCl2], the Residual activity is given as 105.7% in test [1], 93.6% in test [2] (Concentration 5 mM) and 97.1% in test [3] (Concentration 5 mM). For the same compound, the “Activating or inhibitory effect” value in test [1] (added with the substrate), in test [2] and in test [3] was “would not be activated” each time.
As to `CCCCCCCCCCCCOS(=O)(=O)[O-].[Na+]` [SDS, sodium dodecyl sulfate], the Residual activity in test [2] (Concentration 5 mM) is recorded as 0.0%. In addition, the “Activating or inhibitory effect” value in test [2] and in test [3] was “inhibitory effects” in each case. Besides, the remaining activity at 5000 µM in test [3] (setting [7]) stood at 0%.
As for `O=C(O)CN(CCN(CC(=O)O)CC(=O)O)CC(=O)O` [EDTA], the Residual activity in test [2] is 96.8%; in test [3], 106.3%.
Regarding `O=[N+]([O-])[O-].[Ag+]` [AgNO3], the figures for the Residual activity in test [2] (Concentration 5 mM) and in test [3] (Concentration 5 mM) were 121.0% and 105.7%, respectively.
Regarding `[Cl-].[Cl-].[Co+2]` [CoCl2], the Residual activity in test [1] is 87.2%; in test [2] (Concentration 5 mM) it was 88.5%; in test [3] (Concentration 5 mM) it was 97.1%.
As to `OC[C@H]1O[C@H](O[C@H]2O[C@H](CO)[C@@H](O[C@H]3O[C@H](CO)[C@@H](O[C@H]4O[C@H](CO)[C@@H](O[C@H]5O[C@H](CO)[C@@H](O[C@H]6O[C@H](CO)[C@@H](O[C@H]7O[C@H](CO)[C@@H](O)[C@H](O)[C@H]7O)[C@H](O)[C@H]6O)[C@H](O)[C@H]5O)[C@H](O)[C@H]4O)[C@H](O)[C@H]3O)[C@H](O)[C@H]2O)[C@H](O)[C@@H](O)[C@@H]1O` [Maltopentaosyltrehalose], in test [5], the Liberated oligosaccharide result is “G3 + Maltosyltrehalose”; the “Production rate of di- and trisaccharides” value was 4.36 units/ml. Also, in test [6], the Liberated oligosaccharide result was “G5 + Trehalose”; the “Production rate of mono- and disaccharides” value came out at 25.5 units/ml.
As for `[Cl][Mn][Cl]` [MnCl2], the Residual activity in test [1] came out at 91.2%; in test [2] (Concentration 5 mM) it was 74.2%; in test [3] (Concentration 5 mM), 101.8%.
The matching figures for `O=S(=O)([O-])[O-].[Fe+2]` [FeSO4]: 74.1%, 108.3% and 73.5%.
The matching figures for `[Cl-].[Cl-].[Mg+2]` [MgCl2]: 82.9%, 111.3% and 93.5%.
In the case of `OC[C@H]1O[C@H](O[C@H]2O[C@H](CO)[C@@H](O[C@H]3O[C@H](CO)[C@@H](O[C@H]4O[C@H](CO)[C@@H](O[C@H]5O[C@H](CO)[C@@H](O[C@H]6O[C@H](CO)[C@@H](O)[C@H](O)[C@H]6O)[C@H](O)[C@H]5O)[C@H](O)[C@H]4O)[C@H](O)[C@H]3O)[C@H](O)[C@H]2O)[C@H](O)[C@@H](O)[C@@H]1O` [Maltotetraosyltrehalose], in test [5], the Liberated oligosaccharide entry is “G3 + Glucosyltrehalose”; the “Production rate of di- and trisaccharides” value is 2.57 units/ml. Besides, in test [6], the Liberated oligosaccharide result is reported as “G4 + Trehalose”; the “Production rate of mono- and disaccharides” value is 27.3 units/ml.
`O[C@H](CS)[C@H](O)CS` (racemic) [Dithiothreitol]: the Residual activity is 106.0% in test [1] and 84.5% in test [2] (Concentration 5 mM). Also, the remaining activity at 5000 µM in test [3] (setting [7]) came to 116%.
As to `OC[C@H]1O[C@H](OC[C@H]2OC(O)[C@H](O)[C@@H](O)[C@@H]2O)[C@H](O)[C@@H](O)[C@@H]1O` (stereo partly drawn) [Isomaltose], in test [4], the “Action of the enzyme on the substrate” value is reported as “did not act”; the Liberated oligosaccharide result is listed as “not decomposed”; the “Production rate of mono- and disaccharides” value was found to be 0 units/ml. In test [6], the “Action of the enzyme on the substrate” value is “did not act”; the Liberated oligosaccharide entry was “not decomposed”; the “Production rate of mono- and disaccharides” value is recorded as 0 units/ml.
Consider `OCC1OC(OC2OC(CO)C(OC3OC(CO)C(O)C(O)C3O)C(O)C2O)C(O)C(O)C1O` [Glucosyltrehalose, α-D-maltosyl α-D-glucopyranoside], for which, in test [4], the Liberated oligosaccharide entry is “Glucose + Trehalose”; the “Production rate of mono- and disaccharides” value is on record as 0.01 units/ml. Also, in test [5], the Liberated oligosaccharide entry is reported as “not decomposed”; the “Production rate of di- and trisaccharides” value worked out at 0 units/ml. Moreover, in test [6], the Liberated oligosaccharide result is “Glucose + Trehalose”; the “Production rate of mono- and disaccharides” value is 0.04 units/ml.
For `OCC1OC(OC2OC(CO)C(OC3OC(CO)C(OC4OC(CO)C(OC5OC(CO)C(O)C(O)C5O)C(O)C4O)C(O)C3O)C(O)C2O)C(O)C(O)C1O` [Maltotriosyltrehalose, α-D-maltotetraosyl α-D-glucopyranoside], the Liberated oligosaccharide result in test [4] is “G3 + Trehalose”; in test [5] it was “G2 + Glucosyltrehalose”; in test [6] it was “G3 + Trehalose”. Further, the “Production rate of mono- and disaccharides” value in test [4] is 35.21 units/ml; in test [6], 25.0 units/ml. In addition, in test [5], the “Production rate of di- and trisaccharides” value is on record as 0.03 units/ml.
With `[Cl][Fe]([Cl])[Cl]` [FeCl3], the Residual activity in test [1] is 39.0%; in test [2] (Concentration 5 mM), 90.0%; in test [3] (Concentration 5 mM), 38.0%.
